Measured values from US11723890B2, “Methods of treatment using an mTORC1 modulator” (Navitor Pharmaceuticals, Inc., priority 2019, dated 2023).

Experiments:
mTORC1 = mTORC1 downstream signaling and synaptic changes in medial pre-frontal cortex of rats; type: in vivo, rat; conditions: layer V pyramidal neurons
Excerpt: Compound A [(S)-2-amino-5,5-difluoro-4,4-dimethylpentanoic acid] is a novel, orally bioavailable, specific, small molecule that activates mTORC1 pathway signaling in the brain, including those centers responsible for mood.

rat = experiment: 14-day Q3D oral toxicology study in rats; type: in vivo
Experimental: (§1) In rats administered 160, 500, or 1000 mg/kg PO every 3 days (Q3D) for 14 days (5 doses total), the no-observed-adverse-effect level (NOAEL) was 160 mg/kg.
(§2) Factors Influencing Starting and Stopping Dose for compound A: The proposed starting dose of compound A (150 mg) was based on considering the NOAEL dose of compound A in the most sensitive species (160 mg/kg dosed Q3D for 14 days in rat), determining the human equivalent dose (HED) based on the body surface area difference between the two species (˜26 mg/kg, or ˜1560 mg for a 60 kg human), followed by applying a safety factor of 10 to yield the maximum recommended starting dose (MRSD). Based on the above considerations, the starting dose of compound A in the present study was 150 mg. Based on an integrated assessment of nonclinical findings with compound A, the planned maximum dose for compound A in the first-time-in-humans (FTIH) study was 2400 mg. Extrapolated on the basis of body surface area, the 2400 mg dose is equivalent to 247 mg/kg in rats and 123 mg/kg in monkeys. […] At 160 mg/kg in monkeys, the only effect was a slight decrease in heart rate (approximately 18%, or approximately 30 beats per minute, compared with vehicle).
(§3) In addition, the present clinical study included frequent clinical laboratory tests.

[1] = 14-day Q3D oral toxicology study in rats; type: in vivo, rat; conditions: rat, in vivo
Experimental: as §1, §2, §3

[2] = Nonclinical studies, observation of seizures; type: in vivo
healthy volunteers = experiment: Example 1 Part A: safety and tolerability of single ascending doses in healthy volunteers
Excerpt: Up to approximately 48 healthy volunteers were randomly assigned to double-blind treatment. […] The in-house period was 6 days/5 nights. The duration of each subject's participation was up to 39 days, including screen/washout and follow-up.
(§4) The study included standard safety and tolerability assessments—e.g., physical, neurological, and psychiatric examinations, vital signs, oral temperature, respiration rate, weight, 12-lead paper electrocardiograms (pECGs), dECGs, clinical laboratory tests, monitoring of adverse events (AEs) and concomitant medications, and, in Part A of the study, cardiovascular (CV) telemetry and safety EEGs.
Subjects were required to abstain from eating or drinking for two hours prior to and after dosing. • Subjects randomized to receive placebo (purified water and Flavor Sweet-SF™): Single dose placebo was administered orally as a solution on Day 1. Subjects were required to abstain from eating or drinking for two hours prior to and after dosing.
An AE is any unfavorable and unintended sign (including an abnormal laboratory finding), symptom, or disease temporally associated with the use of a medical treatment or procedure, whether or not considered related to the medical treatment or procedure. […] An AE term is a unique representation of a specific event used for medical documentation and scientific analyses.
A TEAE is an AE that either commenced following initiation of study treatment or was present prior to study treatment but increased in frequency or severity following initiation of study treatment.

subjects with TRD = experiment: Example 1 Part B: safety and tolerability of a single dose in subjects with TRD; conditions: single oral 2400 mg
Excerpt: In Part B of the study, approximately 32 subjects were randomly assigned to double-blind treatment in one cohort. […] The single-blind placebo lead-in treatment was intended to facilitate screening out placebo responders.
as §4
Placebo was administered orally as a solution.

[3] = test system: BDNF and BDNF receptor (NTRK2); experiment: Example 2: CSF BDNF and BDNF receptor (NTRK2) fragment levels; type: in vivo, human; conditions: healthy males; single oral 2400 mg; FIGS. 9 and 10
Excerpt: Exploratory Objective(s): The exploratory objectives of this study were as follows using CSF and plasma samples collected over the same time frame as the PK samples: • conducted unbiased metabolomic analysis using validated methods as described: https://www.metabolon.com/what-we-do/our-technology. • conducted unbiased proteomic analysis using validated methods as described: https://www.biognosys.com/technology. Study Endpoints:
Pharmacokinetic, Metabolomic, and Proteomic Variables: Blood and CSF samples for the PK, metabolomics, and proteomic analysis of compound A were collected at various time points and were processed and analyzed by a validated method for determining concentrations of compound A.

CC(C)(C[C@H](N)C(=O)O)C(F)F [Compound A, (S)-2-amino-5,5-difluoro-4,4-dimethylpentanoic acid]
mTORC1 downstream signaling, synaptic protein expression, synaptic arborization (mTORC1): increase in mTORC1 downstream signaling, synaptic protein expression (e.g., GluR1 and synapsin), and synaptic arborization
human equivalent dose (HED) of rat NOAEL for a 60 kg human (rat; based on body surface area difference, 60 kg human): ~1560 mg
other findings, not considered adverse (rat; rat, in vivo, po): slightly decreased lymphocyte, monocyte, and neutrophil counts
findings at high doses (rat; rat, in vivo, po, 500 mg/kg): lymphoid atrophy and decreased leucocyte counts
adverse effects at 1000 mg/kg (rat; rat, in vivo, po, 1000 mg/kg): regenerative anemia in one male, considered likely an episode of gastrointestinal (GI) bleeding, and hepatocellular injury in one male
human equivalent dose of rat NOAEL at 14 days ([1]; oral, 160 mg/kg, based on body surface area difference, read-out: human equivalent dose (HED) of rat NOAEL): ~26 mg/kg
NOAEL at 14 days ([1]; rats, 160, 500 or 1000 mg/kg PO Q3D for 14 days (5 doses), read-out: no-observed-adverse-effect level (NOAEL)): 160 mg/kg
seizures [2]: seizures have not been observed
Number of subjects with ≥1 TEAE (healthy volunteers; all doses Total, N = 36): 13 (36.1) n (%)
TEAE: Abdominal pain (healthy volunteers; all doses Total, N = 36): 1 n (%)
TEAE: Abdominal pain lower (healthy volunteers; all doses Total, N = 36): 1 n (%)
TEAE: Blood creatine phosphokinase increased (healthy volunteers; all doses Total, N = 36): 1 n (%)
TEAE: Dermatitis contact (healthy volunteers; all doses Total, N = 36): 3 n (%)
TEAE: Diarrhea (healthy volunteers; all doses Total, N = 36): 1 n (%)
TEAE: Dizziness (healthy volunteers; all doses Total, N = 36): 4 n (%)
TEAE: Dry mouth (healthy volunteers; all doses Total, N = 36): 1 n (%)
TEAE: Headache (healthy volunteers; all doses Total, N = 36): 2 n (%)
TEAE: Hot flush (healthy volunteers; all doses Total, N = 36): 1 n (%)
TEAE: Lipase increased (healthy volunteers; all doses Total, N = 36): 1 n (%)
TEAE: Nausea (healthy volunteers; all doses Total, N = 36): 3 n (%)
TEAE: Presyncope (healthy volunteers; all doses Total, N = 36): 1 n (%)
TEAE: Somnolence (healthy volunteers; all doses Total, N = 36): 1 n (%)
TEAE: Vomiting (healthy volunteers; all doses Total, N = 36): 1 n (%)
Total number of TEAEs (healthy volunteers; all doses Total, N = 36): 22 n (%)
Number of subjects with ≥1 TEAE (healthy volunteers; single oral 150 mg, N = 6): 2 (33.3) n (%)
TEAE: Abdominal pain lower (healthy volunteers; single oral 150 mg, N = 6): 1 n (%)
TEAE: Dizziness (healthy volunteers; single oral 150 mg, N = 6): 1 n (%)
Total number of TEAEs (healthy volunteers; single oral 150 mg, N = 6): 3 n (%)
Number of subjects with ≥1 TEAE (healthy volunteers; single oral 300 mg, N = 6): 2 (33.3) n (%)
TEAE: Blood creatine phosphokinase increased (healthy volunteers; single oral 300 mg, N = 6): 1 n (%)
TEAE: Lipase increased (healthy volunteers; single oral 300 mg, N = 6): 1 n (%)
Total number of TEAEs (healthy volunteers; single oral 300 mg, N = 6): 2 n (%)
Number of subjects with ≥1 TEAE (healthy volunteers; single oral 600 mg, N = 6): 1 (16.7) n (%)
TEAE: Dizziness (healthy volunteers; single oral 600 mg, N = 6): 1 n (%)
TEAE: Presyncope (healthy volunteers; single oral 600 mg, N = 6): 1 n (%)
Total number of TEAEs (healthy volunteers; single oral 600 mg, N = 6): 1 n (%)
Number of subjects with ≥1 TEAE (healthy volunteers; single oral 1000 mg, N = 6): 1 (16.7) n (%)
TEAE: Dizziness (healthy volunteers; single oral 1000 mg, N = 6): 1 n (%)
Total number of TEAEs (healthy volunteers; single oral 1000 mg, N = 6): 1 n (%)
Number of subjects with ≥1 TEAE (healthy volunteers; single oral 1600 mg, N = 6): 4 (66.7) n (%)
TEAE: Abdominal pain (healthy volunteers; single oral 1600 mg, N = 6): 1 n (%)
TEAE: Dermatitis contact (healthy volunteers; single oral 1600 mg, N = 6): 2 n (%)
TEAE: Diarrhea (healthy volunteers; single oral 1600 mg, N = 6): 1 n (%)
TEAE: Dizziness (healthy volunteers; single oral 1600 mg, N = 6): 2 n (%)
TEAE: Dry mouth (healthy volunteers; single oral 1600 mg, N = 6): 1 n (%)
TEAE: Headache (healthy volunteers; single oral 1600 mg, N = 6): 1 n (%)
TEAE: Nausea (healthy volunteers; single oral 1600 mg, N = 6): 1 n (%)
TEAE: Somnolence (healthy volunteers; single oral 1600 mg, N = 6): 1 n (%)
Total number of TEAEs (healthy volunteers; single oral 1600 mg, N = 6): 10 n (%)
Number of subjects with ≥1 TEAE (healthy volunteers; single oral 2400 mg, N = 6): 3 (50.0) n (%)
TEAE: Dermatitis contact (healthy volunteers; single oral 2400 mg, N = 6): 1 n (%)
TEAE: Headache (healthy volunteers; single oral 2400 mg, N = 6): 1 n (%)
TEAE: Nausea (healthy volunteers; single oral 2400 mg, N = 6): 2 n (%)
TEAE: Vomiting (healthy volunteers; single oral 2400 mg, N = 6): 1 n (%)
Total number of TEAEs (healthy volunteers; single oral 2400 mg, N = 6): 5 n (%)
Vitals, labs, and ECG findings (healthy volunteers; single oral doses 150-2400 mg): unremarkable
maximally tolerated dose (healthy volunteers; single oral doses 150-2400 mg): not reached
safety and tolerability (healthy volunteers; single oral doses 150-2400 mg): well tolerated, with no serious adverse events, and no discontinuations due to adverse events
severity of adverse events (healthy volunteers; single oral doses 150-2400 mg): mild
safety and tolerability (healthy volunteers; single oral doses 150-2400 mg, listed as compound A): generally safe and well tolerated
BPRS+ and CADSS scores (healthy volunteers; single oral doses 150-2400 mg, vs placebo): comparable as between the treatment groups
Vitals, labs, and ECG findings (subjects with TRD): unremarkable
safety and tolerability (subjects with TRD): well tolerated, with no serious adverse events, and no discontinuations due to adverse events
severity of adverse events (subjects with TRD): mild-moderate
Deaths (subjects with TRD; n = 16): 0
Discontinuations due to AE (subjects with TRD; n = 16): 0
Serious AEs (subjects with TRD; n = 16): 0
Subjects with at least 1 AE (subjects with TRD; n = 16): 11 (68.8)
TEAE: Back pain (subjects with TRD; n = 16): 1
TEAE: Dizziness (subjects with TRD; n = 16): 2
TEAE: Dizziness postural (subjects with TRD; n = 16): 1
TEAE: Dry mouth (subjects with TRD; n = 16): 1
TEAE: Dyspepsia (subjects with TRD; n = 16): 1
TEAE: Feeling abnormal (subjects with TRD; n = 16): 1
TEAE: Flatulence (subjects with TRD; n = 16): 1
TEAE: Frequent bowel movements (subjects with TRD; n = 16): 1
TEAE: Headache (subjects with TRD; n = 16): 2
TEAE: Hypertension (subjects with TRD; n = 16): 1
TEAE: Hyperthyroidism (subjects with TRD; n = 16): 1
TEAE: Myalgia (subjects with TRD; n = 16): 1
TEAE: Nausea (subjects with TRD; n = 16): 1
TEAE: Nipple pain (subjects with TRD; n = 16): 1
TEAE: Orthostatic hypotension (subjects with TRD; n = 16): 1
TEAE: Sensory disturbance (subjects with TRD; n = 16): 1
TEAE: Skin abrasion (subjects with TRD; n = 16): 1
TEAE: Somnolence (subjects with TRD; n = 16): 4
TEAE: T-wave inversion (subjects with TRD; n = 16): 1
Total number of TEAEs (subjects with TRD; n = 16): 24
BPRS+ and CADSS scores (subjects with TRD; vs placebo): comparable as between the treatment groups
CSF BDNF and BDNF receptor (NTRK2) fragment levels [3]: rapid release of BDNF and receptor degradation
